Six molecules from patent US20260007758A1, “SO[…]-2 RECEPTOR (SST2R) NON-PEPTIDE DRUG CONJUGATES AND USES THEREOF” (Crinetics Pharmaceuticals, Inc., priority 2024, published 2026) can be followed below.

Broadly, the EC50 is the concentration giving half of the maximal effect.

What all share (assay type): cell-based
Assay [1] has as its target T1, human somatostatin receptor subtype 2 (Homo sapiens, UniProt P30874).
T1 construct: expressed in transfected cells
Description: Functional assay for SSTR2 agonists (HTRF cAMP). The settings on record: CHO-K1 cells stably expressing human SST2; NKH477-stimulated cAMP; 20 min at 37 C; read-out: hSST2 cAMP Avg EC50. An excerpt:
General overview: All five SSTR subtypes are Gi coupled G-protein coupled receptors (GPCRs) that lead to decreases in intracellular cyclic AMP (cAMP) when activated by an agonist. Therefore, measurement of intracellular cAMP levels can be used to assess whether compounds of the invention are agonists of SSTR subtypes (John Kelly, Troy Stevens, W. Joseph Thompson, and Roland Seifert, Current Protocols in Pharmacology. 2005, 2.2.1-2.2). One example of an intracellular cAMP assay is described below.
Four days prior to the assay, 2,000 Chinese hamster ovary cells (CHO-K1, ATCC #CCL-61) stably expressing the human somatostatin receptor subtype 2 are plated in each well of a 96-well tissue culture-treated plate in Ham's F12 growth media (ThermoFisher #10-080-CM) supplemented with 10% donor bovine serum (Gemini Bio-Products #100-506), 100 U/mL penicillin; 100 ug/mL streptomycin, 2 mM L-glutamine (Gemini Bio-Products #400-110) and 0.2 mg/mL hygromycin B (GoldBio #31282-04-9). The cells are cultured at 37° C., 5% CO2 and 95% humidity. cAMP is measured with HTRF dynamic cAMP assay (Cisbio. #62AM5PEJ) per manufacturer's instructions. […] The cells are incubated for 20 minutes at 37° C. (the final concentration of the compounds of the invention are typically 0-10,000 nM). The cells are treated with 50 μL of lysis buffer (HRTF cAMP kit, Cisbio) and incubated at room temperature for 30 minutes with rotary shaking at 600 rpm, and then diluted with 150 μL of stimulation buffer and shaken for an additional five minutes at 300 rpm. The lysate is transferred to 384-well plates and incubated for 1-24 hours at room temperature, and cAMP accumulation is detected by d2-labeled cAMP and Anti-cAMP-Cryptate. The time-resolved fluorescent signal is read using a m1000 Pro (Tecan) or CLARIOStar (BMG Labtech) microplate reader, where the samples are excited with light at 340 nm and emission light is measured at 620 nm and 665 nm. The data is expressed as a calculation of the fluorescence ratio (665 nm/620 nm). The intracellular cAMP concentrations are calculated by regression to a standard curve and are plotted vs, the concentration of the compounds of the invention. The EC50 of the compounds are calculated using standard methods. All data manipulations are in GraphPad Prism v9 (GraphPad, San Diego, CA).

The next assay deals with T2, SST2 (Homo sapiens, UniProt P30874).
T2 construct: host or cells: PathHunter CHO-K1 SST2 cells
T2 sequence (P30874 whole entry): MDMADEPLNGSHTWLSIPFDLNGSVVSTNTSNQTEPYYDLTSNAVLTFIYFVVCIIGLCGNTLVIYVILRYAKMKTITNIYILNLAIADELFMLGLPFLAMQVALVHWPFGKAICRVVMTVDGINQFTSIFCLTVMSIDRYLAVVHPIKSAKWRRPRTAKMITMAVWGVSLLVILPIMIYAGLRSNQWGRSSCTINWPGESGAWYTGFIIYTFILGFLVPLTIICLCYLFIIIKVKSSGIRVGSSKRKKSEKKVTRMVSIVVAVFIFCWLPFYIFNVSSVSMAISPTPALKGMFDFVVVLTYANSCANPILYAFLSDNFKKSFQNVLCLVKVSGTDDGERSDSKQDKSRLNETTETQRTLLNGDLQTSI
Description: PathHunter CHO-K1 SST2 Internalization Assay. The settings on record: PathHunter CHO-K1 SST2 cells; 90 min at 37 C; luminescence; read-out: Internalization EC50. How it is done: NDCs of the present invention were assessed in vitro using the human PathHunter CHO-K1 SST2 β-arrestin2 and PathHunter CHO-K1 SST2 Internalization Assays from DiscoverX. The CHO-K cells were seeded in 20 μLs of cell culture medium in a white-walled 384 well tissue culture-compatible plate at a density of 2500 cells/well. After a 48-hour incubation, cells were treated with 5 μLs of a 1:3 serially diluted SST2 NDC prepared at 5× concentration with a final top compound concentration of 10 uM for 90 min at 37 C and in 5% CO2. 11 dilutions were tested as well as one treatment that was compound free. After incubation, the media containing treatments were discarded and 20 μL of a working solution of Beta-Glo from Promega Beta-Go Assay System was added to each well. The plate was then incubated for 60 min at room temperature in the dark. Luminescence was measured using a Tecan plate reader. IC50 curves were generated using the nonlinear regression analysis (four-parameters) with GraphPad Prism 9. Results were the average of duplicates and are corrected for background.

Assay [2] concerns NCI-H524 human small cell lung cancer cells. Description: H524 assay: inhibition of cell proliferation (CellTiter Glo). The settings on record: 2 h treatment, washout, additional 70 h incubation. On the procedure: NDCs of the present invention were assessed in an in vitro assay evaluating the inhibition of cell proliferation. NCI-H524 (ATCC) human small cell lung cancer cells were plated in 96-well V-bottom plates (Costar) at a concentration of 5,000 cells/well. 24 h later, the cells were treated for 2 h with a NDC. NDC starting dose was 1 uM and two-fold serial dilutions were done for a total of 11 points. After 2 h of treatment, cells were spun down, and the drug-containing media was removed, and fresh complete media was added and used to resuspend the cells, which were spun again. After removal of the media, the cells were resuspended in complete medium and incubated for an additional 70 h. Cell proliferation was assessed using the CellTiter Glo Assay according to the standard protocol (Promega). Luminescence was measured using a TECAN plate reader. Percent proliferation inhibition was calculated using the following formula: % inhibition=(Luminescence Control−Luminescence Treatment)/Luminescence Control*100. IC50 curves were generated using the nonlinear regression analysis (four-parameter) with GraphPad Prism 9.
For orientation: In ATP-based viability assays light output follows the ATP content of the culture.

T1 sequence (P30874 whole entry): as above

`CC[C@H](C)[C@@H]([C@@H](CC(=O)N1CCC[C@H]1[C@H](OC)[C@@H](C)C(=O)N[C@H](C)[C@@H](O)c1ccccc1)OC)N(C)C(=O)[C@@H](NC(=O)[C@H](C(C)C)N(C)C(=O)OCc1ccc(NC(=O)[C@H](CCCNC(N)=O)NC(=O)[C@@H](NC(=O)CCOCCC(=O)NCCNc2ncc(-c3cc(C)cc(F)c3)c(N3CCC(N)CC3)c2-c2nc3cc(Cl)ccc3[nH]2)C(C)C)c(O[C@@H]2O[C@H](C(=O)NCC(=O)O)[C@@H](O)[C@H](O)[C@H]2O)c1)C(C)C` [Compound 44]: the figures for the EC50 (in assay [1]; on SST2; in assay [2]) were 0.085 nM, 4.5 nM and 4.8 nM, respectively.

For the molecule `CC[C@H](C)[C@@H]([C@@H](CC(=O)N1CCC[C@H]1[C@H](OC)[C@@H](C)C(=O)N[C@H](C)[C@@H](O)c1ccccc1)OC)N(C)C(=O)[C@@H](NC(=O)[C@H](C(C)C)N(C)C(=O)OCc1ccc(NC(=O)[C@H](CCCNC(N)=O)NC(=O)[C@@H](NC(=O)c2cc(OCCOCCC(=O)NCCNc3ncc(-c4cc(C)cc(F)c4)c(N4CCC(N)CC4)c3-c3nc4ccc(Cl)cc4[nH]3)cc(C(=O)NCC(=O)O)c2)C(C)C)cc1)C(C)C` [Compound 160], the results for the EC50 (in assay [1]; at SST2; in assay [2]) were 0.25 nM, 7.4 nM and 100 nM, respectively.

With `CC[C@H](C)[C@@H]([C@@H](CC(=O)N1CCC[C@H]1[C@H](OC)[C@@H](C)C(=O)N[C@H](C)[C@@H](O)c1ccccc1)OC)N(C)C(=O)[C@@H](NC(=O)[C@H](C(C)C)N(C)C(=O)OCc1ccc(NC(=O)[C@H](CCCNC(N)=O)NC(=O)[C@@H](NC(=O)CCOCCC(=O)NCCNc2ncc(-c3cc(C)cc(F)c3)c(N3CCC(N)CC3)c2-c2nc3ccc(Cl)cc3[nH]2)C(C)C)c(O[C@@H]2O[C@H](C(=O)NCC(=O)NCCCCCCO[PH](=O)OC3CCC(c4ccccc4)(c4ccccc4)CC3)[C@@H](O)[C@H](O)[C@H]2O)c1)C(C)C` (stereo partly drawn) [Compound 234], the concentration giving a half-maximal response (EC50) in assay [1] is 0.55 nM; at SST2 it was 6.6 nM; in assay [2], 140 nM.

On to `CC[C@H](C)[C@@H]([C@@H](CC(=O)N1CCC[C@H]1[C@H](OC)[C@@H](C)C(=O)N[C@H](C)[C@@H](O)c1ccccc1)OC)N(C)C(=O)[C@@H](NC(=O)[C@H](C(C)C)N(C)C(=O)OCc1ccc(NC(=O)[C@H](CCCNC(N)=O)NC(=O)[C@@H](NC(=O)c2cc(NC(=O)CCCC(=O)N(C)CC(=O)NCCNc3ncc(-c4cc(C)cc(F)c4)c(N4CCC(N)CC4)c3-c3nc4ccc(Cl)cc4[nH]3)cc(C(=O)NC[C@@H](N)C(=O)O)c2)C(C)C)cc1)C(C)C` [Compound 171], for which the values for the 50% effective concentration (EC50) (in assay [1]; on SST2; in assay [2]) were 0.33 nM, 8.3 nM and 14 nM, respectively.

As for `CC[C@H](C)[C@@H]([C@@H](CC(=O)N1CCC[C@H]1[C@H](OC)[C@@H](C)C(=O)N[C@H](C)[C@@H](O)c1ccccc1)OC)N(C)C(=O)[C@@H](NC(=O)[C@H](C(C)C)N(C)C(=O)OCc1ccc(NC(=O)[C@H](CCCNC(N)=O)NC(=O)[C@@H](NC(=O)c2cc(NC(=O)CCCC(=O)N(C)CC(=O)NCCNc3ncc(-c4cc(C)cc(F)c4)c(N4CCC(N)CC4)c3-c3nc4ccc(F)cc4[nH]3)cc(C(=O)NCC(=O)O)c2)C(C)C)cc1)C(C)C` [Compound 169], the figures for the EC50 (in assay [1]; at SST2; in assay [2]) were 0.1 nM, 10 nM and 32 nM, respectively.

For the molecule `CC[C@H](C)[C@@H]([C@@H](CC(=O)N1CCC[C@H]1[C@H](OC)[C@@H](C)C(=O)N[C@H](C)[C@@H](O)c1ccccc1)OC)N(C)C(=O)[C@@H](NC(=O)[C@H](C(C)C)N(C)C(=O)OCc1ccc(NC(=O)[C@H](CCCNC(N)=O)NC(=O)[C@@H](NC(=O)CCOCCC(=O)NCCNc2ncc(-c3cc(C)cc(F)c3)c(N3CCC(N)CC3)c2-c2nc3ccc(Cl)cc3[nH]2)C(C)C)c(O[C@@H]2O[C@H](C(=O)N(C)CCOCCC(=O)O)[C@@H](O)[C@H](O)[C@H]2O)c1)C(C)C` [Compound 231], the EC50 came out at 0.33 nM in assay [1], 12 nM at SST2 and 49 nM in assay [2].
